Experimental data reported in the NIST ThermoML archive (doi:10.1016/j.jct.2017.12.023).

What was measured:
[1] = xn = mol fraction of the nth substance listed; settings: 100 kPa, Liquid, x2 = 0; for viscosity: Concentric cylinders viscometry; for mass density: Vibrating tube method
[2] = refractive index (Na D-line) (dimensionless); xn = mol fraction of the nth substance listed; settings: 100 kPa, Liquid, Standard Abbe refractometry, x2 = 0
[3] = Liquid; for viscosity / mass density: 100 kPa; for viscosity: Concentric cylinders viscometry; for mass density: Vibrating tube method; for thermal conductivity: 101.33 kPa, transient hot wire
[4] = refractive index (Na D-line) (dimensionless); settings: 100 kPa, Liquid, Standard Abbe refractometry

CN1CCCC1=O [N-methylpyrrolidone] + CCOS(=O)(=O)[O-].CCn1cc[n+](C)c1
Settings | mass density, [1] [kg/m3] | refractive index, [2] | viscosity, [1] [mPa·s]
288.15 K | 1037.3 | 1.47166 | 1.99
293.15 K | 1032.84 | 1.46952 | 1.823
298.15 K | 1028.38 | 1.46736 | 1.679
303.15 K | 1023.93 | 1.4652 | 1.555
308.15 K | 1019.46 | 1.46306 | 1.444
313.15 K | 1015 | 1.46095 | 1.346
318.15 K | 1010.53 | 1.45891 | 1.259
323.15 K | 1006.06 | 1.4568 | 1.182
328.15 K | 1001.58 | 1.45473 | 1.11
333.15 K | 997.1 | 1.45267 | 1.043

CCOS(=O)(=O)[O-].CCn1cc[n+](C)c1 [1-ethyl-3-methylimidazolium ethyl sulfate]
Settings | mass density, [3] [kg/m3] | refractive index, [4] | thermal conductivity, [3] [W/m/K] | viscosity, [3] [mPa·s]
288.15 K | 1243.07 | 1.48155 | – | 155.55
293.15 K | 1239.66 | 1.48018 | – | 117.88
298.15 K | 1236.27 | 1.47882 | – | 91.26
303.15 K | 1232.87 | 1.47746 | 0.1808 | 72.1
308.15 K | 1229.49 | 1.47611 | 0.18 | 57.98
313.15 K | 1226.13 | 1.47474 | 0.1795 | 47.26
318.15 K | 1222.79 | 1.47341 | 0.1787 | 39.25
323.15 K | 1219.46 | 1.47206 | 0.178 | 32.94
328.15 K | 1216.16 | 1.47075 | – | 27.96
333.15 K | 1212.86 | 1.46943 | – | 24.09

CCCCCCO [hexan-1-ol]
Settings | mass density, [3] [kg/m3] | refractive index, [4] | viscosity, [3] [mPa·s]
288.15 K | 822.26 | 1.41986 | 6.297
293.15 K | 818.69 | 1.4179 | 5.324
298.15 K | 815.11 | 1.41591 | 4.53
303.15 K | 811.51 | 1.41386 | 3.889
308.15 K | 807.88 | 1.41182 | 3.355
313.15 K | 804.23 | 1.40981 | 2.912
318.15 K | 800.56 | 1.40779 | 2.541
323.15 K | 796.85 | 1.40574 | 2.251

CCCCCCO [hexan-1-ol] + CCOS(=O)(=O)[O-].CCn1cc[n+](C)c1
Settings | mass density, [1] [kg/m3] | refractive index, [2] | viscosity, [1] [mPa·s]
288.15 K | 822.26 | 1.41986 | 6.297
293.15 K | 818.69 | 1.4179 | 5.324
298.15 K | 815.11 | 1.41591 | 4.53
303.15 K | 811.51 | 1.41386 | 3.889
308.15 K | 807.88 | 1.41182 | 3.355
313.15 K | 804.23 | 1.40981 | 2.912
318.15 K | 800.56 | 1.40779 | 2.541
323.15 K | 796.85 | 1.40574 | 2.251
